According to patent US20230406912A1, “HUMANISED ANTIBODIES AGAINST PATHOGENIC FUNGI” (priority 2020, published 2023):

Tests used:
[1] = tested on: C. auris; test: EUCAST antifungal MIC assay, drug alone and combined with hmAb 2G8; format: cell-based; settings: drug alone
Description: To evaluate the susceptibility of C. auris to caspofungin, amphotericin B and their combination with hmAb 2G8, we followed the EUCAST antifungal MIC method (EUCAST E.DEF. 7.3). Antifungal drugs were purchased from Sigma-Aldrich.
The caspofungin and amphotericin B range concentrations analysed were reported in EUCAST document. Those concentrations were tested alone and in combination with 0.25, 2.5, 25 and 250 μg/ml of humanised antibody.
The plates microdilution and the yeast inoculum were prepared as reported in EUCAST document. The wells with 100 μl of 2X final antifungal drugs concentration in RPMI 2% G medium were inoculated with 100 μl (1-5×10^5 CFU/ml) of yeast suspension of C. auris. The monoclonal antibody was added to the samples of yeast suspension to test the combination drug-antibody. The plates were incubated at 37° C. for 24 and 48 hours and read after incubation at 405 nm. The assays were performed in triplicate.
As reported in EUCAST, echinocandins' MIC50 is the lowest drug concentration giving inhibition of≥50% of that of the drug-free control (dotted line). For amphotericin B, MIC50 is the same as for echinocandins while MIC90 is considered as the lowest concentration giving a growth inhibition of≥90% of that of the drug-free control (dotted bold line). […] At 48 hours (D), amphotericin B alone has its MIC50 and 90 at 1 μg/ml.

[2] = tested on: C. auris; test: Time-kill curve, drug alone and combined with hmAb 2G8; format: cell-based
From the text: To support and deepen the data coming from MIC assays, a time-kill curve was elaborated to evaluate how the hmAb 2G8 combined with caspofungin or amphotericin B could improve their basal activity on C. auris.

[3] = tested on: C. auris; settings: different C. auris strains, literature; cited from earlier work

C[C@@H]1[C@H](O)[C@@H](C)/C=C/C=C/C=C/C=C/C=C/C=C/C=C/[C@H](O[C@@H]2O[C@H](C)[C@@H](O)[C@H](N)[C@@H]2O)C[C@@H]2O[C@](O)(C[C@@H](O)C[C@@H](O)[C@H](O)CC[C@@H](O)C[C@@H](O)CC(=O)O[C@H]1C)C[C@H](O)[C@H]2C(=O)O [amphotericin B]
MIC50 ([1]; 24 hours): 0.5 µg/mL
MIC90 ([1]; 24 hours): 0.5 µg/mL
MIC50 ([1]; 48 hours): 1 µg/mL
MIC90 ([1]; 48 hours): 1 µg/mL
log growth decrease (time-kill curve) ([2]; AMB 0.03125 μg/ml, 0 h): 0.01 Log
log growth decrease (time-kill curve) ([2]; AMB 0.03125 μg/ml, 2 h): 0.05 Log
log growth decrease (time-kill curve) ([2]; AMB 0.03125 μg/ml, 4 h): −0.19 Log
log growth decrease (time-kill curve) ([2]; AMB 0.03125 μg/ml, 6 h): −0.62 Log
log growth decrease (time-kill curve) ([2]; AMB 0.03125 μg/ml, 8 h): −1.04 Log
log growth decrease (time-kill curve) ([2]; AMB 0.03125 μg/ml, 24 h): −2.65 Log
log growth decrease (time-kill curve) ([2]; AMB 0.03125 μg/ml, 48 h): −2.85 Log
log growth decrease (time-kill curve) ([2]; AMB 0.0625 μg/ml, 0 h): 0.00 Log
log growth decrease (time-kill curve) ([2]; AMB 0.0625 μg/ml, 2 h): 0.07 Log
log growth decrease (time-kill curve) ([2]; AMB 0.0625 μg/ml, 4 h): −0.14 Log
log growth decrease (time-kill curve) ([2]; AMB 0.0625 μg/ml, 6 h): −0.59 Log
log growth decrease (time-kill curve) ([2]; AMB 0.0625 μg/ml, 8 h): −0.97 Log
log growth decrease (time-kill curve) ([2]; AMB 0.0625 μg/ml, 24 h): −2.59 Log
log growth decrease (time-kill curve) ([2]; AMB 0.0625 μg/ml, 48 h): −2.57 Log
log growth decrease (time-kill curve) ([2]; AMB 0.125 μg/ml, 0 h): 0.01 Log
log growth decrease (time-kill curve) ([2]; AMB 0.125 μg/ml, 2 h): 0.11 Log
log growth decrease (time-kill curve) ([2]; AMB 0.125 μg/ml, 4 h): −0.07 Log
log growth decrease (time-kill curve) ([2]; AMB 0.125 μg/ml, 6 h): −0.42 Log
log growth decrease (time-kill curve) ([2]; AMB 0.125 μg/ml, 8 h): −0.80 Log
log growth decrease (time-kill curve) ([2]; AMB 0.125 μg/ml, 24 h): −2.28 Log
log growth decrease (time-kill curve) ([2]; AMB 0.125 μg/ml, 48 h): −2.44 Log
log growth decrease (time-kill curve) ([2]; AMB 0.25 μg/ml, 0 h): 0.07 Log
log growth decrease (time-kill curve) ([2]; AMB 0.25 μg/ml, 2 h): 0.10 Log
log growth decrease (time-kill curve) ([2]; AMB 0.25 μg/ml, 4 h): 0.02 Log
log growth decrease (time-kill curve) ([2]; AMB 0.25 μg/ml, 6 h): −0.02 Log
log growth decrease (time-kill curve) ([2]; AMB 0.25 μg/ml, 8 h): 0.02 Log
log growth decrease (time-kill curve) ([2]; AMB 0.25 μg/ml, 24 h): 0.19 Log
log growth decrease (time-kill curve) ([2]; AMB 0.25 μg/ml, 48 h): −2.13 Log
log growth decrease (time-kill curve) ([2]; AMB 0.5 μg/ml, 0 h): 0.05 Log
log growth decrease (time-kill curve) ([2]; AMB 0.5 μg/ml, 2 h): 0.21 Log
log growth decrease (time-kill curve) ([2]; AMB 0.5 μg/ml, 4 h): 0.41 Log
log growth decrease (time-kill curve) ([2]; AMB 0.5 μg/ml, 6 h): 0.86 Log
log growth decrease (time-kill curve) ([2]; AMB 0.5 μg/ml, 8 h): 1.95 Log
log growth decrease (time-kill curve) ([2]; AMB 0.5 μg/ml, 24 h): ≥3 Log
log growth decrease (time-kill curve) ([2]; AMB 0.5 μg/ml, 48 h): ≥3 Log
log growth decrease (time-kill curve) ([2]; AMB 1 μg/ml, 0 h): 0.05 Log
log growth decrease (time-kill curve) ([2]; AMB 1 μg/ml, 2 h): 1.77 Log
log growth decrease (time-kill curve) ([2]; AMB 1 μg/ml, 4 h): ≥3 Log
log growth decrease (time-kill curve) ([2]; AMB 1 μg/ml, 6 h): ≥3 Log
log growth decrease (time-kill curve) ([2]; AMB 1 μg/ml, 8 h): ≥3 Log
log growth decrease (time-kill curve) ([2]; AMB 1 μg/ml, 24 h): ≥3 Log
log growth decrease (time-kill curve) ([2]; AMB 1 μg/ml, 48 h): ≥3 Log
log growth decrease (time-kill curve) ([2]; AMB 2 μg/ml, 0 h): 0.05 Log
log growth decrease (time-kill curve) ([2]; AMB 2 μg/ml, 2 h): ≥3 Log
log growth decrease (time-kill curve) ([2]; AMB 2 μg/ml, 4 h): ≥3 Log
log growth decrease (time-kill curve) ([2]; AMB 2 μg/ml, 6 h): ≥3 Log
log growth decrease (time-kill curve) ([2]; AMB 2 μg/ml, 8 h): ≥3 Log
log growth decrease (time-kill curve) ([2]; AMB 2 μg/ml, 24 h): ≥3 Log
log growth decrease (time-kill curve) ([2]; AMB 2 μg/ml, 48 h): ≥3 Log
log growth decrease (time-kill curve) ([2]; AMB 4 μg/ml, 0 h): 0.06 Log
log growth decrease (time-kill curve) ([2]; AMB 4 μg/ml, 2 h): ≥3 Log
log growth decrease (time-kill curve) ([2]; AMB 4 μg/ml, 4 h): ≥3 Log
log growth decrease (time-kill curve) ([2]; AMB 4 μg/ml, 6 h): ≥3 Log
log growth decrease (time-kill curve) ([2]; AMB 4 μg/ml, 8 h): ≥3 Log
log growth decrease (time-kill curve) ([2]; AMB 4 μg/ml, 24 h): ≥3 Log
log growth decrease (time-kill curve) ([2]; AMB 4 μg/ml, 48 h): ≥3 Log
time at which fungicidal activity is obtained ([2]; time-kill curve, as efficiency starts decreasing): 24 h
MIC [3]: ≥ 2 µg/mL
